# Test results taken from paper PMC11211491, “Design of a covalent protein-protein interaction inhibitor of SRPKs to suppress angiogenesis and invasion of cancer cells” (Communications Chemistry, 2024).
# Square brackets hold non-standard residues; d marks the D form. Peptide text beside a SMILES is read from it. * marks the point of attachment. Benzoyl(4-SO2F) = O=C(c1ccc(S(=O)(=O)F)cc1)*; Dap = NC[C@H](N)C(=O)O
# Legend:
# SRPK1ΔNS3 = settings: quoted for comparison, earlier work on DBS1; read-out: Kd of DBS1 for SRPK1; cited from earlier work
# From the text: Because DBS1 targets the docking groove of SRPK, we tested the specificity of C-DBS toward the same binding site. We performed fluorescence polarization (FP) assay to examine the direct noncovalent interaction between C-DBS and SRPK1ΔNS3, as well as the docking groove mutant SRPK1ΔNS3_DM that contains alanine substitutions at four docking groove residues—D548, D564, E571, and K615—that are essential for the binding and phosphorylation of the substrate (Fig. 2a)[11],[12],[36].
# A549 = assay: Cell viability assay (MTT); format: cell-based, human; settings: A549, up to 100 μM, 24 h
# Procedure: (§1) Cells (6 × 10^3 per well) were seeded into a 96-well plate. After overnight incubation, cells were treated with different concentrations of C-DBS for 24 h. The viability of the cells was determined using 3-(4,5-dimethylthiazol-2-yl)-2,5-diphenyltetrazolium bromide (MTT) (Roche). Absorption at 570 nm was measured using a microplate reader (BMG, CLARIOstar) according to the manufacturer’s instructions.
# HeLa = assay: Cell viability assay (MTT); format: cell-based, human; settings: up to 100 μM, 24 h
# Procedure: as §1
# HEK-293 = assay: Cell viability assay (MTT); format: cell-based, human; settings: HEK-293, up to 100 μM, 24 h
# Procedure: as §1
# MDA-MB-231 = assay: Cell viability assay (MTT); format: cell-based, human; settings: MDA-MB-231, up to 100 μM, 24 h
# Procedure: as §1
# A549 cells = assay: Cellular uptake and endo/lysosomal escape (confocal microscopy); format: cell-based, human
# Procedure: A549 cells (20 × 10^4 per well) were seeded into confocal dishes (SPL Life Sciences) and incubated for adhesion overnight at 37 °C in 5% CO2. 6-FAM-labeled C-DSB or control peptide was diluted to Opti-MEM medium (Gibco) and added to the cells for 24-h incubation. C-DBS was washed with PBS containing 20 U/mL heparin (Sigma-Aldrich) and stained with 40 μM Hoechst 33342 (Life Technologies) and 5 μg/mL Wheat Germ Agglutinin Alexa Fluor 647 Conjugate (Life Technologies) for 20 min. After removing excess dye, cell images were captured by the Leica TCS SP8 Confocal Microscope System. To detect the endo/lysosomal escape of C-DBS, 50 nM Lysotracker Red (Life Technologies) was used to stain the endo/lysosomes. Fluorescence intensity profiles of the region of interest (ROI) were analyzed using ImageJ software.
Compound,Kd (SRPK1ΔNS3) [µM],cytotoxicity (MTT) (A549),cytotoxicity (MTT) (HeLa),cytotoxicity (MTT) (HEK-293),cytotoxicity (MTT) (MDA-MB-231),"cellular uptake (A549 cells; A549, 10 μM FAM-labeled peptide, 24 h, Opti-MEM, confocal fluorescence microscopy)","endo/lysosomal trapping after internalization (A549 cells; A549, LysoTracker Red, 1.5 or 24 h incubation)"
RERARTRRE^9RARTRERARTR [DBS1],3.2 ± 1.5,–,–,–,–,–,–
CC(=O)N[C@@H](CCCNC(=N)N)C(=O)N[C@@H](CCC(=O)O)C(=O)N[C@@H](CCCNC(=N)N)C(=O)N[C@@H](C)C(=O)N[C@@H](CCCNC(=N)N)C(=O)N[C@H](C(=O)N[C@@H](CCCNC(=N)N)C(=O)N[C@@H](CCCNC(=N)N)C(=O)N[C@@H](CNC(=O)c1ccc(S(=O)(=O)F)cc1)C(=O)N[C@@H](CCCNC(=N)N)C(=O)N[C@@H](C)C(=O)N[C@@H](CCCNC(=N)N)C(=O)N[C@H](C(=O)N[C@@H](CCCNC(=N)N)C(=O)N[C@@H](CCC(=O)O)C(=O)N[C@@H](CCCNC(=N)N)C(=O)N[C@@H](C)C(=O)N[C@@H](CCCNC(=N)N)C(=O)N[C@H](C(=O)N[C@@H](CCCNC(=N)N)C(N)=O)[C@@H](C)O)[C@@H](C)O)[C@@H](C)O [C-DBS] (Ac-RERARTRR[Dap](Benzoyl(4-SO2F))RARTRERARTR-NH2),–,no cytotoxicity,no cytotoxicity,no cytotoxicity,no cytotoxicity,readily internalized by the A549 cells,not trapped in endolysosomal compartments after internalization
